Tested on: Stress protein genes
Test: DNA chip mRNA expression in yeast, stress protein genes (Table 6)
Format: cell-based, Saccharomyces cerevisiae S288C
In short: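 Expression change after 2 h toxicant exposure (growth-inhibiting, sub-lethal) of log-phase S. cerevisiae S288C at 25° C. Oligo-dT-purified mRNA was labeled with Cy3-dUTP or Cy5-dUTP and hybridized >12 h at 65° C. to a genome-wide chip; ratio of scanned fluorescence to control.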

S=C([S-])NCCNC(=S)[S-].[Zn+2] [(11), zinc N,N′-ethylenebis(dithiocarbamate)]
The level of expressed mRNA in the presence of chemical substance/The level of expressed mRNA in the absence of chemical substance (yeast gene YAL005C): 1.0 | The level of expressed mRNA in the presence of chemical substance/The level of expressed mRNA in the absence of chemical substance (yeast gene YAL015C): 1.4 | The level of expressed mRNA in the presence of chemical substance/The level of expressed mRNA in the absence of chemical substance (yeast gene YBL075C): 1.6 | The level of expressed mRNA in the presence of chemical substance/The level of expressed mRNA in the absence of chemical substance (yeast gene YBL093C): 1.3 | The level of expressed mRNA in the presence of chemical substance/The level of expressed mRNA in the absence of chemical substance (yeast gene YBR044C): 1.1 | The level of expressed mRNA in the presence of chemical substance/The level of expressed mRNA in the absence of chemical substance (yeast gene YBR054W): 1.8 | The level of expressed mRNA in the presence of chemical substance/The level of expressed mRNA in the absence of chemical substance (yeast gene YBR067C): 3.1 | The level of expressed mRNA in the presence of chemical substance/The level of expressed mRNA in the absence of chemical substance (yeast gene YBR072W): 6.3 | The level of expressed mRNA in the presence of chemical substance/The level of expressed mRNA in the absence of chemical substance (yeast gene YBR126C): 1.1 | The level of expressed mRNA in the presence of chemical substance/The level of expressed mRNA in the absence of chemical substance (yeast gene YBR169C): 2.2 | The level of expressed mRNA in the presence of chemical substance/The level of expressed mRNA in the absence of chemical substance (yeast gene YCL035C): 2.1 | The level of expressed mRNA in the presence of chemical substance/The level of expressed mRNA in the absence of chemical substance (yeast gene YCR021C): 0.6 | The level of expressed mRNA in the presence of chemical substance/The level of expressed mRNA in the absence of chemical substance (yeast gene YCR060W): 1.2 | The level of expressed mRNA in the presence of chemical substance/The level of expressed mRNA in the absence of chemical substance (yeast gene YCR083W): 1.8 | The level of expressed mRNA in the presence of chemical substance/The level of expressed mRNA in the absence of chemical substance (yeast gene YDL022W): 2.8 | The level of expressed mRNA in the presence of chemical substance/The level of expressed mRNA in the absence of chemical substance (yeast gene YDL025C): 1.5 | The level of expressed mRNA in the presence of chemical substance/The level of expressed mRNA in the absence of chemical substance (yeast gene YDR033W): 0.7 | The level of expressed mRNA in the presence of chemical substance/The level of expressed mRNA in the absence of chemical substance (yeast gene YDR077W): 6.8 | The level of expressed mRNA in the presence of chemical substance/The level of expressed mRNA in the absence of chemical substance (yeast gene YDR098C): 1.4 | The level of expressed mRNA in the presence of chemical substance/The level of expressed mRNA in the absence of chemical substance (yeast gene YDR155C): 3.8 | The level of expressed mRNA in the presence of chemical substance/The level of expressed mRNA in the absence of chemical substance (yeast gene YDR258C): 1.7 | The level of expressed mRNA in the presence of chemical substance/The level of expressed mRNA in the absence of chemical substance (yeast gene YDR293C): 1.1 | The level of expressed mRNA in the presence of chemical substance/The level of expressed mRNA in the absence of chemical substance (yeast gene YDR436W): 2.0 | The level of expressed mRNA in the presence of chemical substance/The level of expressed mRNA in the absence of chemical substance (yeast gene YDR513W): 2.0 | The level of expressed mRNA in the presence of chemical substance/The level of expressed mRNA in the absence of chemical substance (yeast gene YDR519W): 1.2 | The level of expressed mRNA in the presence of chemical substance/The level of expressed mRNA in the absence of chemical substance (yeast gene YEL030W): 1.7 | The level of expressed mRNA in the presence of chemical substance/The level of expressed mRNA in the absence of chemical substance (yeast gene YEL039C): 1.7 | The level of expressed mRNA in the presence of chemical substance/The level of expressed mRNA in the absence of chemical substance (yeast gene YER042W): 1.8 | The level of expressed mRNA in the presence of chemical substance/The level of expressed mRNA in the absence of chemical substance (yeast gene YER057C): 1.8 | The level of expressed mRNA in the presence of chemical substance/The level of expressed mRNA in the absence of chemical substance (yeast gene YER103W): 1.8 | The level of expressed mRNA in the presence of chemical substance/The level of expressed mRNA in the absence of chemical substance (yeast gene YER125W): 1.0 | The level of expressed mRNA in the presence of chemical substance/The level of expressed mRNA in the absence of chemical substance (yeast gene YFL014W): 5.0 | The level of expressed mRNA in the presence of chemical substance/The level of expressed mRNA in the absence of chemical substance (yeast gene YFL016C): 1.2 | The level of expressed mRNA in the presence of chemical substance/The level of expressed mRNA in the absence of chemical substance (yeast gene YFL020C): 1.2 | The level of expressed mRNA in the presence of chemical substance/The level of expressed mRNA in the absence of chemical substance (yeast gene YFR052W): 0.9 | The level of expressed mRNA in the presence of chemical substance/The level of expressed mRNA in the absence of chemical substance (yeast gene YGL073W): 0.8 | The level of expressed mRNA in the presence of chemical substance/The level of expressed mRNA in the absence of chemical substance (yeast gene YGL115W): 1.0 | The level of expressed mRNA in the presence of chemical substance/The level of expressed mRNA in the absence of chemical substance (yeast gene YGL181W): 1.2 | The level of expressed mRNA in the presence of chemical substance/The level of expressed mRNA in the absence of chemical substance (yeast gene YGR088W): 3.9 | The level of expressed mRNA in the presence of chemical substance/The level of expressed mRNA in the absence of chemical substance (yeast gene YHL028W): 0.7 | The level of expressed mRNA in the presence of chemical substance/The level of expressed mRNA in the absence of chemical substance (yeast gene YHL046C): 0.4 | The level of expressed mRNA in the presence of chemical substance/The level of expressed mRNA in the absence of chemical substance (yeast gene YHR030C): 1.5 | The level of expressed mRNA in the presence of chemical substance/The level of expressed mRNA in the absence of chemical substance (yeast gene YHR057C): 1.6 | The level of expressed mRNA in the presence of chemical substance/The level of expressed mRNA in the absence of chemical substance (yeast gene YHR104W): 2.6 | The level of expressed mRNA in the presence of chemical substance/The level of expressed mRNA in the absence of chemical substance (yeast gene YIL011W): 2.5 | The level of expressed mRNA in the presence of chemical substance/The level of expressed mRNA in the absence of chemical substance (yeast gene YIL033C): 1.8 | The level of expressed mRNA in the presence of chemical substance/The level of expressed mRNA in the absence of chemical substance (yeast gene YIR037W): 3.0 | The level of expressed mRNA in the presence of chemical substance/The level of expressed mRNA in the absence of chemical substance (yeast gene YIR038C): 3.4 | The level of expressed mRNA in the presence of chemical substance/The level of expressed mRNA in the absence of chemical substance (yeast gene YJL128C): 0.6 | The level of expressed mRNA in the presence of chemical substance/The level of expressed mRNA in the absence of chemical substance (yeast gene YJL158C): 1.9 | The level of expressed mRNA in the presence of chemical substance/The level of expressed mRNA in the absence of chemical substance (yeast gene YJL159W): 1.2 | The level of expressed mRNA in the presence of chemical substance/The level of expressed mRNA in the absence of chemical substance (yeast gene YJL165C): 1.7 | The level of expressed mRNA in the presence of chemical substance/The level of expressed mRNA in the absence of chemical substance (yeast gene YJR045C): 1.4 | The level of expressed mRNA in the presence of chemical substance/The level of expressed mRNA in the absence of chemical substance (yeast gene YJR090C): 0.4 | The level of expressed mRNA in the presence of chemical substance/The level of expressed mRNA in the absence of chemical substance (yeast gene YKL161C): 3.1 | The level of expressed mRNA in the presence of chemical substance/The level of expressed mRNA in the absence of chemical substance (yeast gene YKL163W): 1.3 | The level of expressed mRNA in the presence of chemical substance/The level of expressed mRNA in the absence of chemical substance (yeast gene YKL164C): 1.0 | The level of expressed mRNA in the presence of chemical substance/The level of expressed mRNA in the absence of chemical substance (yeast gene YKL210W): 1.4 | The level of expressed mRNA in the presence of chemical substance/The level of expressed mRNA in the absence of chemical substance (yeast gene YKR053C): 0.5 | The level of expressed mRNA in the presence of chemical substance/The level of expressed mRNA in the absence of chemical substance (yeast gene YLL024C): 1.6 | The level of expressed mRNA in the presence of chemical substance/The level of expressed mRNA in the absence of chemical substance (yeast gene YLL026W): 1.7 | The level of expressed mRNA in the presence of chemical substance/The level of expressed mRNA in the absence of chemical substance (yeast gene YLL039C): 1.1 | The level of expressed mRNA in the presence of chemical substance/The level of expressed mRNA in the absence of chemical substance (yeast gene YLL060C): 14.1 | The level of expressed mRNA in the presence of chemical substance/The level of expressed mRNA in the absence of chemical substance (yeast gene YLR006C): 1.5 | The level of expressed mRNA in the presence of chemical substance/The level of expressed mRNA in the absence of chemical substance (yeast gene YLR109W): 1.5 | The level of expressed mRNA in the presence of chemical substance/The level of expressed mRNA in the absence of chemical substance (yeast gene YLR259C): 3.0 | The level of expressed mRNA in the presence of chemical substance/The level of expressed mRNA in the absence of chemical substance (yeast gene YML007W): 1.3 | The level of expressed mRNA in the presence of chemical substance/The level of expressed mRNA in the absence of chemical substance (yeast gene YML070W): 1.5 | The level of expressed mRNA in the presence of chemical substance/The level of expressed mRNA in the absence of chemical substance (yeast gene YMR021C): 0.9 | The level of expressed mRNA in the presence of chemical substance/The level of expressed mRNA in the absence of chemical substance (yeast gene YMR173W): 3.2 | The level of expressed mRNA in the presence of chemical substance/The level of expressed mRNA in the absence of chemical substance (yeast gene YMR186W): 1.1 | The level of expressed mRNA in the presence of chemical substance/The level of expressed mRNA in the absence of chemical substance (yeast gene YNL064C): 0.9 | The level of expressed mRNA in the presence of chemical substance/The level of expressed mRNA in the absence of chemical substance (yeast gene YNL160W): 5.4 | The level of expressed mRNA in the presence of chemical substance/The level of expressed mRNA in the absence of chemical substance (yeast gene YNL241C): 3.0 | The level of expressed mRNA in the presence of chemical substance/The level of expressed mRNA in the absence of chemical substance (yeast gene YNR076W): 1.4 | The level of expressed mRNA in the presence of chemical substance/The level of expressed mRNA in the absence of chemical substance (yeast gene YOL064C): 1.0 | The level of expressed mRNA in the presence of chemical substance/The level of expressed mRNA in the absence of chemical substance (yeast gene YOL161C): 1.5 | The level of expressed mRNA in the presence of chemical substance/The level of expressed mRNA in the absence of chemical substance (yeast gene YOR008C): 1.0 | The level of expressed mRNA in the presence of chemical substance/The level of expressed mRNA in the absence of chemical substance (yeast gene YOR009W): 1.4 | The level of expressed mRNA in the presence of chemical substance/The level of expressed mRNA in the absence of chemical substance (yeast gene YOR010C): 1.2 | The level of expressed mRNA in the presence of chemical substance/The level of expressed mRNA in the absence of chemical substance (yeast gene YOR027W): 1.3 | The level of expressed mRNA in the presence of chemical substance/The level of expressed mRNA in the absence of chemical substance (yeast gene YOR208W): 1.2 | The level of expressed mRNA in the presence of chemical substance/The level of expressed mRNA in the absence of chemical substance (yeast gene YPL059W): 1.6 | The level of expressed mRNA in the presence of chemical substance/The level of expressed mRNA in the absence of chemical substance (yeast gene YPL106C): 1.3 | The level of expressed mRNA in the presence of chemical substance/The level of expressed mRNA in the absence of chemical substance (yeast gene YPL140C): 0.8 | The level of expressed mRNA in the presence of chemical substance/The level of expressed mRNA in the absence of chemical substance (yeast gene YPL194W): 0.9 | The level of expressed mRNA in the presence of chemical substance/The level of expressed mRNA in the absence of chemical substance (yeast gene YPL223C): 1.8 | The level of expressed mRNA in the presence of chemical substance/The level of expressed mRNA in the absence of chemical substance (yeast gene YPL240C): 1.0 | The level of expressed mRNA in the presence of chemical substance/The level of expressed mRNA in the absence of chemical substance (yeast gene YPR005C): 0.4 | The level of expressed mRNA in the presence of chemical substance/The level of expressed mRNA in the absence of chemical substance (yeast gene YPR026W): 1.6
